Source: US20240228572A1 (i2o Therapeutics, Inc., priority 2020, published 2024)
*1 amine or outer side, *2 acyl side, *3 side chain or, on linkers, in order; H or OH if unused. Where a SMILES comes first, the peptide text is derived from it. Side-chain parts run from the residue outwards. [ ]: non-standard residue; d: D form. The star is where a group is joined. C20 diacid = O=C(O)CCCCCCCCCCCCCCCCCCC(=O)*; γGlu = O=C(O)[C@H](CCC(=O)[*:2])N[*:1]; AEEA = NCCOCCOCC(=O)O; Aib = CC(C)(N)C(=O)O

Biological target: T1, human GLP-1 receptor (GLP-1R) (Homo sapiens, UniProt P43220)
T1 construct: expressed in transfected cells
T1 sequence (P43220 24-463): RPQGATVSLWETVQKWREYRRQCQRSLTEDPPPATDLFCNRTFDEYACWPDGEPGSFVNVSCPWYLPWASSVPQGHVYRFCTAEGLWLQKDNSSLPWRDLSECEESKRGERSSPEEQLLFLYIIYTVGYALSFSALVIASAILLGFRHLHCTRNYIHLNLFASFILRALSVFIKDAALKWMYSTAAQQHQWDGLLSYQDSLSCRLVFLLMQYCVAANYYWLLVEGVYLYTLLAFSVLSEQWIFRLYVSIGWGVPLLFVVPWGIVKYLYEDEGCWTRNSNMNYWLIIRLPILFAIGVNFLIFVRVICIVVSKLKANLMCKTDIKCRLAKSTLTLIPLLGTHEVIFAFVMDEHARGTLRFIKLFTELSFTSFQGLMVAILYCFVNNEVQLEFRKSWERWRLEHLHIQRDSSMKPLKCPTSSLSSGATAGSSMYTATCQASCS
Assay: cAMP accumulation assay, CHO-K1 cells stably expressing human GLP-1R
Format: cell-based
Details: cAMP accumulation, mean pEC50, Table 10
Description: In the presence of the non-specific cAMP/cGMP phosphodiesterase inhibitor, 3-isobutyl-1-methylxanthine (IBMX), accumulating cAMP can be measured in vitro using common detection methods. Thus, it is possible to estimate an in vitro potency (pEC50) for peptides activating each of these receptors using fit dose-response curves for cAMP accumulation.
CHO-K1 cells stably expressing human GLP-1R (Genebank accession #NM_002062) were grown in 90% F12-K media supplemented with 10% FBS and 250 μg/ml G418.
On day 1, CHO-K1 cells were plated at 1.5 million cells per T75 flask in 90% F12-K media supplemented with 10% FBS. On day 3 cells were transfected with 40 mcg of each expression plasmid using Lipofectamine 2000 transfection reagent. On day 5, cells were dispensed at 1000 cells per well in white 384-well OptiPlates in 5 mcL of assay buffer consisting of 1×HBSS, 5 mM HEPES, 0.5 mM IBMX, and 0.1% casein.
Peptides were serially diluted 4-fold in assay buffer to final concentrations ranging from 1×10^−9 M to 9.5×10^−16 M. Two assay controls consisting of 50 mcM forskolin (cAMP system maximum) or assay buffer only (cAMP system minimum) were also prepared. Five microliters of each peptide-concentration, or assay control, was added to triplicate wells and incubated for thirty minutes at room temperature. During this incubation step a 4× europium labelled cAMP tracer solution and a 4× Ulight®-anti-cAMP solution (consisting of an anti-cAMP monoclonal antibody labelled with Ulight™ dye) was prepared according to the manufacturer's protocol (PerkinElmer LANCE Ultra cAMP kit). Following this incubation, 5 mcL europium labelled cAMP and 5 mcL Ulight anti-cAMP antibody was added to each well. The plate was covered to prevent evaporation and incubated for 60 minutes at room temperature in the dark. Plates were read on an Envision fluorescent plate reader (PerkinElmer).
Test values were first normalized to the system maximum and system minimum averaged values in Excel using the formula: (test value−system min average)/(system max average -system min average)*100. Normalized test values represent a baseline corrected percentage of the system maximum cAMP response induced by forskolin. Data from up to 3 replicate tests were analyzed for each peptide. Potency values were estimated using GraphPad Prism software (v7.04) by fitting data to a 4-parameter logistic curve model: Y=Bottom+(Top−Bottom)/(1+10^((LogEC50−X))). The Hill slope was constrained to 1.0. EC50 values were converted to pEC50 values using the formula: pEC50=−Log (EC50).

Structure (SMILES): CC(C)C[C@H](NC(=O)[C@H](Cc1ccc(O)cc1)NC(=O)[C@H](CCCCN)NC(=O)[C@H](CO)NC(=O)[C@H](Cc1ccc(O)cc1)NC(=O)[C@H](CC(=O)O)NC(=O)[C@H](CO)NC(=O)[C@@H](NC(=O)[C@H](Cc1ccccc1)NC(=O)[C@@H](NC(=O)CNC(=O)[C@H](Cc1c[nH]cn1)NC(=O)[C@H](CO)NC(=O)[C@@H](N)Cc1ccc(O)cc1)[C@@H](C)O)[C@@H](C)O)C(=O)N[C@@H](CC(=O)O)C(=O)N[C@@H](CCCCNC(=O)CC[C@H](NC(=O)CC[C@H](NC(=O)COCCOCCNC(=O)CCCCCCCCCCCCCCCCCCC(=O)O)C(=O)O)C(=O)O)C(=O)N[C@@H](CCCCN)C(=O)N[C@@H](Cc1ccc(O)cc1)C(=O)N[C@@H](C)C(=O)N[C@@H](CCC(N)=O)C(=O)N[C@@H](CCC(=O)O)C(=O)N[C@@H](Cc1ccccc1)C(=O)N[C@H](C(=O)NC(C)(C)C(=O)N[C@@H](Cc1c[nH]c2ccccc12)C(=O)N[C@@H](CC(C)C)C(=O)N[C@@H](CCC(=O)O)C(=O)N[C@@H](CCCCN)C(=O)N[C@@H](CCC(=O)O)C(=O)N1CCC[C@H]1C(=O)N[C@@H](CO)C(=O)N[C@@H](CO)C(=O)NCC(=O)N[C@@H](C)C(=O)N1CCC[C@H]1C(=O)N1CCC[C@H]1C(=O)N1CCC[C@H]1C(=O)N[C@@H](CO)C(=O)O)C(C)C [Compound A20] (H-YSHGTFTSDYSKYLDK([γGlu-γGlu-AEEA-C20 diacid])KYAQEFV[Aib]WLEKEPSSGAPPPS-OH; N-terminus assumed)
- EC50: > 1 nM

Structure (SMILES): CC(C)C[C@H](NC(=O)[C@H](Cc1ccc(O)cc1)NC(=O)[C@H](CCCCN)NC(=O)[C@H](CO)NC(=O)[C@H](Cc1ccc(O)cc1)NC(=O)[C@H](CC(=O)O)NC(=O)[C@H](CO)NC(=O)[C@@H](NC(=O)[C@H](Cc1ccccc1)NC(=O)[C@@H](NC(=O)CNC(=O)[C@H](Cc1c[nH]cn1)NC(=O)[C@H](CO)NC(=O)[C@@H](N)Cc1ccc(O)cc1)[C@@H](C)O)[C@@H](C)O)C(=O)N[C@@H](CC(=O)O)C(=O)N[C@@H](CCCCNC(=O)CC[C@H](NC(=O)CC[C@H](NC(=O)COCCOCCNC(=O)CCCCCCCCCCCCCCCCCCC(=O)O)C(=O)O)C(=O)O)C(=O)N[C@@H](CCCCN)C(=O)N[C@@H](Cc1ccc(O)cc1)C(=O)N[C@@H](C)C(=O)N[C@@H](CCC(N)=O)C(=O)N[C@@H](CCC(=O)O)C(=O)N[C@@H](Cc1ccccc1)C(=O)N[C@H](C(=O)NC(C)(C)C(=O)N[C@@H](Cc1c[nH]c2ccccc12)C(=O)N[C@@H](CC(C)C)C(=O)N[C@@H](CCC(=O)O)C(=O)N[C@@H](CO)C(=O)N[C@@H](CCC(=O)O)C(=O)N1CCC[C@H]1C(=O)N[C@@H](CO)C(=O)N[C@@H](CO)C(=O)NCC(=O)N[C@@H](C)C(=O)N1CCC[C@H]1C(=O)N1CCC[C@H]1C(=O)N1CCC[C@H]1C(=O)N[C@@H](CO)C(=O)O)C(C)C [Compound A19] (H-YSHGTFTSDYSKYLDK([γGlu-γGlu-AEEA-C20 diacid])KYAQEFV[Aib]WLESEPSSGAPPPS-OH)
- EC50: > 1 nM
